Holding throughout (test): NCI anticancer screen, dose series, 48 h
The test system of experiment [1] is 786-0.
For experiment [2], the system named is ACHN.
Experiment [3] concerns CAKI-1.
Experiment [4] concerns CCRF-CEM.
Experiment [5] has as its system HCT-15.
The subject of experiment [6] is K562.
Experiment [7] deals with MCF7.
The subject of experiment [8] is Malme-3M.
Experiment [9] has as its system NCI-H522.
In experiment [10] the test system is OVCAR-3.
In experiment [11] the test system is RXF 393.
Experiment [12] concerns SF-268.
Experiment [13] relates to SF-295.
The subject of experiment [14] is SK-MEL-2.
Experiment [15] has as its system SK-MEL-5.
Experiment [16] has as its system SN12C.
For experiment [17], the system named is SW-620.
Experiment [18] relates to U-251.
The subject of experiment [19] is UACC-257.
In experiment [20] the test system is UO-31.

The structures appear in SMILES notation.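 Each compound was tested at five concentrations against cells in 96-well plates for 48 hours. Abbreviation: GI50, concentration required for 50% inhibition of growth.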 Active and inactive are the calls of the source. Cut-off read from the data, not from the text of the source: active = GI50 up to about 1.1 µM and inactive = higher.

`Cc1ccc(S(=O)(=O)N/N=C/c2c(O)ccc3ccccc23)cc1`: the GI50 in experiment [1] is 30.1 µM (inactive); in experiment [2], 23.9 µM (inactive); in experiment [3] it was 17.9 µM (inactive); in experiment [4], 36.7 µM (inactive); in [5] it was 24.5 µM; in experiment [6] it was 18.3 µM (inactive). The GI50 is 25.5 µM (inactive) in [7]; 24.3 µM (inactive) in experiment [8]; 17 µM (inactive) in experiment [9]; 19.9 µM (inactive) in [10]; 19.4 µM (inactive) in [11]; 31.8 µM (inactive) in experiment [12]. In addition, the GI50 in experiment [13] is 16.2 µM (inactive); in experiment [14] it was 20.8 µM (inactive); in experiment [15], 31.8 µM (inactive); in experiment [16], 31.1 µM (inactive); in experiment [17], 30.3 µM (inactive); in [18], 27.6 µM (inactive). Besides, the GI50 in experiment [19] was 37.3 µM (inactive); in experiment [20], 53.7 µM (inactive).

Source of the values: ChEMBL document CHEMBL1201862, “PubChem BioAssay data set” (2004).
